Some test systems named below: 786-0; EKVX; HCT-116; HCT-15; IGROV-1; NCI-H226; NCI-H23; NCI/ADR-RES; OVCAR-8; PC-3; RPMI-8226; SK-MEL-2; SK-OV-3; SW-620; T47D; HOP-62; RXF 393.
Common to all, as to test: NCI anticancer screen, dose series, 48 h

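1) Cells in 96-well plates. 2) Compound, 48 h, 5 concentrations. 3) Linear interpolation between surrounding doses. 4) Unreached endpoint = highest concentration. At the GI50, growth is halved.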 Activity calls are given as the source filed them. Cut-off read from the data, not from the text of the source: active = GI50 up to about 1.1 µM and inactive = higher.

Take `CC1(C)CC(=O)C(CC2C(=O)c3ccccc3C2=O)C(=O)C1C(=O)C(=O)Nc1cccc2ccc(O)cc12` (stereo not drawn): the GI50 in the assay with 786-0 was > 100 µM (inactive); in the assay with EKVX it was 43.9 µM (inactive); in the assay on HCT-116 it was > 100 µM (inactive); in the assay on HCT-15, 59.3 µM; in the assay with IGROV-1, 48.9 µM (inactive); with NCI-H226 it was 29 µM (inactive). Besides, the GI50 with NCI-H23 is 67.1 µM (inactive); in the assay on NCI/ADR-RES it was 54.1 µM (inactive); in the assay on OVCAR-8 it was > 100 µM (inactive); in the assay with PC-3, 51.4 µM (inactive); in the assay with RPMI-8226, 66.5 µM (inactive); in the assay with SK-MEL-2, > 100 µM (inactive). Also, the GI50 in the assay with SK-OV-3 was > 100 µM (inactive); with SW-620, > 100 µM (inactive); with T47D, 27.4 µM (inactive).

For `CC(=O)c1ccccc1NCC(=O)Nn1cnc2ccc(S(=O)(=O)Nc3ccccc3C(C)=O)cc2c1=O`, the GI50 in the assay with 786-0 is > 100 µM (inactive); in the assay with EKVX it was > 100 µM (inactive); with HCT-116, > 100 µM (inactive); in the assay with HCT-15, > 100 µM; in the assay on HOP-62, > 100 µM (inactive); in the assay with IGROV-1 it was 2.53 µM (inactive). Further, the GI50 in the assay on NCI-H226, in the assay on NCI-H23, with NCI/ADR-RES, with OVCAR-8, in the assay on PC-3 and with RPMI-8226 was > 100 µM (inactive) in each case. The GI50 with SK-MEL-2, in the assay on SK-OV-3 and in the assay with SW-620 was > 100 µM (inactive) each time.

With `O=C(O)/C=N\N=c1[nH]c2ccccc2[nH]1`, the GI50 was > 100 µM (inactive) in the assay on 786-0; > 100 µM (inactive) in the assay on EKVX; > 100 µM (inactive) in the assay with HCT-116; > 100 µM with HCT-15; > 100 µM (inactive) with HOP-62; > 100 µM (inactive) with IGROV-1. Moreover, the GI50 with NCI-H226, with NCI-H23, in the assay on NCI/ADR-RES, with OVCAR-8, with PC-3 and in the assay on RPMI-8226 was > 100 µM (inactive) throughout. In addition, the GI50 in the assay on SK-MEL-2, in the assay with SK-OV-3, with SW-620 and in the assay with T47D was > 100 µM (inactive) throughout.

Regarding `O=C1c2ccccc2-c2c1c(-c1ccc(O)cc1O)nc1ccc3ccccc3c21`, the GI50 is > 100 µM (inactive) in the assay with 786-0; > 100 µM (inactive) in the assay on EKVX; > 100 µM (inactive) in the assay with HCT-116; > 100 µM in the assay on HCT-15; 49 µM (inactive) in the assay with HOP-62; > 100 µM (inactive) with NCI-H226. The GI50 in the assay with NCI-H23 is > 100 µM (inactive); with NCI/ADR-RES, > 100 µM (inactive); in the assay with OVCAR-8 it was 79.6 µM (inactive); in the assay with PC-3, > 100 µM (inactive); with RPMI-8226, > 100 µM (inactive); in the assay on SK-MEL-2 it was > 100 µM (inactive). The GI50 in the assay with SK-OV-3, in the assay on SW-620 and in the assay with T47D was > 100 µM (inactive) each time.

For the compound `CC(=O)O[C@H]1C(=O)[C@@]2(C)[C@H]([C@H](OC(=O)c3ccccc3)[C@]3(O)C[C@H](OC(=O)[C@H](O)[C@@H](NC(=O)c4ccc(N(C)C)cc4)c4ccccc4)C(C)=C1C3(C)C)[C@]1(OC(C)=O)CO[C@@H]1C[C@@H]2O`, the GI50 was < 0.005 µM (active) in the assay with 786-0; 0.112 µM (active) in the assay with EKVX; < 0.005 µM (active) in the assay with HCT-116; 0.337 µM with HCT-15; 0.0136 µM (active) in the assay with HOP-62; 0.00962 µM (active) in the assay with IGROV-1. The GI50 is 0.008 µM (active) in the assay on NCI-H226; 0.00849 µM (active) in the assay on NCI-H23; 2.21 µM (inactive) in the assay with NCI/ADR-RES; < 0.005 µM (active) in the assay with OVCAR-8; < 0.005 µM (active) with PC-3; < 0.005 µM (active) in the assay with RPMI-8226. Moreover, the GI50 was 0.00887 µM (active) with RXF 393, 0.05 µM (active) with SK-MEL-2, 0.0262 µM (active) with SK-OV-3 and < 0.005 µM (active) in the assay with SW-620.

For `O=C(O)CN1CCN2CCCCCN(CC1)CCN(CC(=O)O)CC2`, the GI50 is > 100 µM (inactive) in the assay on 786-0; > 100 µM (inactive) with EKVX; 73.8 µM (inactive) in the assay with HCT-116; > 100 µM with HCT-15; > 100 µM (inactive) in the assay on HOP-62; > 100 µM (inactive) with IGROV-1. For the same compound, the GI50 was > 100 µM (inactive) with NCI-H226; 22.1 µM (inactive) in the assay on NCI/ADR-RES; > 100 µM (inactive) in the assay on OVCAR-8; > 100 µM (inactive) in the assay with PC-3; > 100 µM (inactive) in the assay on RPMI-8226; > 100 µM (inactive) with SK-MEL-2. For the same compound, the GI50 with SK-OV-3 is > 100 µM (inactive); in the assay on SW-620, 83.9 µM (inactive); with T47D it was > 100 µM (inactive).

As for `C=C1CC(Cn2ccc(=O)[nH]c2=O)(c2ccc(-c3ccccc3)cc2)OC1=O` (stereo not drawn), the GI50 was 0.619 µM (active) in the assay with 786-0; 12.2 µM (inactive) in the assay with EKVX; 0.377 µM (active) with HCT-116; 1.65 µM in the assay on HCT-15; 15.2 µM (inactive) with HOP-62; 1.04 µM (active) in the assay with IGROV-1. Further, the GI50 in the assay with NCI-H226 was 4.6 µM (inactive); with NCI-H23, 1.98 µM (inactive); in the assay with NCI/ADR-RES, 0.805 µM (active); in the assay on OVCAR-8, 2.62 µM (inactive); with PC-3, 3.2 µM (inactive); with RPMI-8226, 0.234 µM (active). Further, the GI50 in the assay on SK-MEL-2 was 2.09 µM (inactive); in the assay on SK-OV-3 it was 8.09 µM (inactive); in the assay with SW-620, 0.257 µM (active); with T47D, 1.57 µM (inactive).

For `Cc1ccc(Nc2nc(=O)c3c4ccccc4n(C(=O)OC(C)(C)C)c3s2)cc1`, the GI50 in the assay on 786-0 was 15.3 µM (inactive); in the assay on EKVX, 29.1 µM (inactive); in the assay with HCT-15, 22.3 µM; with HOP-62 it was 27.9 µM (inactive); with IGROV-1, 21.9 µM (inactive); with NCI-H23, 23.1 µM (inactive). Besides, the GI50 was 10.6 µM (inactive) in the assay with NCI/ADR-RES; 39.7 µM (inactive) in the assay on OVCAR-8; 29 µM (inactive) with PC-3; 17.8 µM (inactive) in the assay on RPMI-8226; 20.7 µM (inactive) in the assay on SK-MEL-2; > 100 µM (inactive) in the assay on SK-OV-3. Moreover, the GI50 with SW-620 is 28.4 µM (inactive); in the assay on T47D it was 39.2 µM (inactive).

Turning to `NC(=S)N/N=C(\Cc1nc2ccc(Cl)cc2nc1O)C(=O)Nc1ccc(Cl)cc1`, the GI50 with 786-0 was > 100 µM (inactive); in the assay on EKVX, 76 µM (inactive); with HCT-116, > 100 µM (inactive); in the assay with HCT-15, > 100 µM; with HOP-62, > 100 µM (inactive); with IGROV-1, > 100 µM (inactive). Besides, the GI50 with NCI-H226 is 96.2 µM (inactive); with NCI-H23 it was > 100 µM (inactive); in the assay with NCI/ADR-RES, > 100 µM (inactive); in the assay on OVCAR-8 it was > 100 µM (inactive); in the assay on PC-3 it was > 100 µM (inactive); in the assay with RXF 393, > 100 µM (inactive). The GI50 in the assay with SK-MEL-2, with SK-OV-3 and with SW-620 was > 100 µM (inactive) throughout.

As to `COc1c(O)c(OC)c2oc(-c3ccc(O)c(O)c3)c(OC)c(=O)c2c1O`, the GI50 in the assay with 786-0 is 15 µM (inactive); in the assay on EKVX, 29.6 µM (inactive); in the assay on HCT-116, 31.2 µM (inactive); in the assay on HCT-15, 11.5 µM; in the assay on HOP-62, 6.98 µM (inactive); in the assay on IGROV-1, 10.4 µM (inactive). Besides, the GI50 in the assay on NCI-H226 is 27.4 µM (inactive); with NCI-H23 it was 32.7 µM (inactive); in the assay with NCI/ADR-RES, 55.1 µM (inactive); in the assay on OVCAR-8 it was 32.1 µM (inactive); with PC-3, 38.9 µM (inactive); with RPMI-8226, 31.8 µM (inactive). Moreover, the GI50 in the assay with SK-MEL-2 was 5.42 µM (inactive); in the assay on SK-OV-3 it was 15.9 µM (inactive); with SW-620, 36.1 µM (inactive); in the assay with T47D, 3.28 µM (inactive).

In the case of `CCOP(=O)(OCC)C(C)(CC)NC` (stereo not drawn), the GI50 is > 100 µM (inactive) in the assay with 786-0; > 100 µM (inactive) with EKVX; > 100 µM (inactive) in the assay with HCT-116; > 100 µM in the assay with HCT-15; > 100 µM (inactive) in the assay with HOP-62; > 100 µM (inactive) with IGROV-1. Besides, the GI50 in the assay with NCI-H226, with NCI-H23, with NCI/ADR-RES, in the assay with OVCAR-8, in the assay on RXF 393 and in the assay with SK-MEL-2 was > 100 µM (inactive) throughout. Further, the GI50 in the assay on SK-OV-3, in the assay on SW-620 and with T47D was > 100 µM (inactive) throughout.

As to `COc1ccccc1/C=C/c1ccnc2ccccc12`, the GI50 in the assay on 786-0 is 14.3 µM (inactive); in the assay on EKVX, 11 µM (inactive); in the assay on HCT-116, 13.6 µM (inactive); in the assay on HCT-15 it was 12.3 µM; in the assay on HOP-62 it was 16.1 µM (inactive); in the assay on IGROV-1 it was 4.97 µM (inactive). Further, the GI50 with NCI-H226 is 15.8 µM (inactive); in the assay with NCI-H23, 13.6 µM (inactive); in the assay with NCI/ADR-RES it was 11.3 µM (inactive); in the assay on OVCAR-8, 15.4 µM (inactive); in the assay with PC-3, 14.3 µM (inactive); in the assay with RPMI-8226 it was 8.49 µM (inactive). For the same compound, the GI50 in the assay on SK-MEL-2 was 16.4 µM (inactive); in the assay with SK-OV-3, 16 µM (inactive); in the assay with SW-620, 13.8 µM (inactive).

Turning to `CC(C)=CCC/C(C)=C/CC/C(C)=C/CC/C(C=O)=C/CC/C(C)=C\CC/C(C)=C/CC/C(C)=C/CC/C(C)=C/CC1=CC(=O)C=CC1=O`, the GI50 is 67 µM (inactive) in the assay on 786-0; > 100 µM (inactive) in the assay on EKVX; 73.5 µM (inactive) in the assay with HCT-116; > 100 µM in the assay with HCT-15; > 100 µM (inactive) in the assay on HOP-62; 31.8 µM (inactive) in the assay with IGROV-1. The GI50 was 22.9 µM (inactive) in the assay with NCI-H23; > 100 µM (inactive) in the assay on NCI/ADR-RES; 46.5 µM (inactive) with OVCAR-8; > 100 µM (inactive) in the assay with PC-3; 37.4 µM (inactive) with RPMI-8226; 31.8 µM (inactive) in the assay with SK-MEL-2. For the same compound, the GI50 with SK-OV-3 is > 100 µM (inactive); in the assay on SW-620 it was > 100 µM (inactive); in the assay with T47D, 10.5 µM (inactive).

The record behind these values is ChEMBL document CHEMBL1201862, “PubChem BioAssay data set” (2004).
